Data taken from patent US20190292223A1, “SAP AND PEPTIDOMIMETICS FOR TREATMENT OF EYE DISEASE” (Arch Biosurgery, Inc., priority 2018, published 2019).
Cy5.5 = Cy5.5 dye

Legend:
[1] = tested on: activated retinal microglial cells; experiment: Lipopolysaccharide ocular inflammation model, 1 μl LPS alone or with SAP intravitreally, sacrifice after 24 hours (Example 2); type: in vivo, Sprague-Dawley rats
Procedure: Adult white Sprague-Dawley rats with a weight of between 200 and 240 grams were housed in a 12 hours light/12 hours night cycle with free access to food and water. The animals were randomly divided into a study or control groups.
Intravitreal injections, immunohistochemical staining and assessment of intraocular inflammation were generally performed as described in Example 1.
1 μl sterile lipopolysaccharide (LPS; from S. typhimurium; catalog no. L-7261; Sigma-Aldrich, St. Louis, Mo.) either alone or in combination with (RADA)2 (SEQ ID NO: 88) solutions at 0.1%, 1.0%, and 10.0% were administered via direct intravitreal injections. The animals were sacrificed 24 hours after treatment. The experiments were repeated at least 5 times.
In some experiments, different SAP, including S2 (H2N(EARA)COOH; SEQ ID NO: 92), S3 (H2N(RARA)CONH2; SEQ ID NO: 413), and S5 (H2N(EARA)2CONH2; SEQ ID NO: 414), were evaluated as described above for (RADA)2 (SEQ ID NO: 88).
Finally, a conjugate of an EARA based SAP and a tissue-specific motif (MSCRAMM; SEQ ID NO: 141) was also evaluated using this lipopolysaccharide ocular inflammation model. Experiments were performed as described above for (RADA)2 (SEQ ID NO: 88). Briefly, 1 μl sterile lipopolysaccharide (LPS; from S. typhimurium; catalog no. L-7261; Sigma-Aldrich, St. Louis, Mo.) either alone or in combination with MSCRAMM(EARA)4 (SEQ ID NO: 432) solutions at 1.0%, and 3.0% were administered via direct intravitreal injections. The animals were sacrificed 24 hours after treatment. The experiments were repeated three times for each SAP conjugate concentration (that is, n=3 for 1%; n=3 for 3%).

[2] = parameters: species or system Sprague-Dawley rats; details: rat, in vivo
Procedure: The fate of SAP upon application to the eye was investigated. Specifically, the ability of SAP to reach the retina via application of eye drop solutions of the SAP to the cornea was evaluated using an SAP-Cy5 conjugate.
Adult white Sprague-Dawley rats weighing between 200 and 240 grams were housed in a 12 hour light/12 hour night cycle with free access to food and water. The animals were randomly divided into experimental or control groups.
Conjugates of Cy5.5 and RADA (SEQ ID NO: 57), Cy5.5 and RADARADA ((RADA)2; SEQ ID NO: 88), and Cy5.5 and H2N(RADA)4CONH2 (SEQ ID NO: 433) were prepared according to a modified protocol of Chen X., et al., Cancer Res., 64(21): 8009-8014 (2004).
In one experiment, RADA-4-Cy5.5 conjugate was prepared as follows: 0.5 mg of H2N(RADA)4CONH2 was dissolved in 50 μL of DMSO to a final concentration of […] in DMSO. The solution was mixed with 20 μL of diethyl isopropyl amine (DIPEA) to adjust the pH to 12. A solution of Cy5.5 dyes (1.0 mg in 20 μL of DMSO) was added at room temperature for conjugation and the mixture was periodically vortexed over 2 hours.
In some experiments, the RADA-4 solution was prepared with water as the solvent, for example: to a solution of RADA-4 (1.8 mg of H2N(RADA)4CONH2 (SEQ ID NO: 433) in 500 μL of Milli-Q water), 1 μL of Diisopropyl ethylene amine (DIPEA) was added to obtain pH 8 from 4. To prepare a working Cy5.5 stock, 165 μL of Milli-Q water was added to 165 μL Cy5.5 to make a 6.59×10^−7 M solution. The final conjugate was prepared by mixing equal volumes (165 μL) of the buffered (pH 8) (RADA)4 solution and Cy5.5 solution at room temperature for 2 hours.
Eye drops were applied to both eyes of rats. The experimental group of rats were administered 2 μL of Cy5.5-(RADA)4 conjugate via drops, while control rats were administered Cy5.5 only via drops. The experiments were repeated using Cy5.5 conjugated to RADA (Cy5.5(RADA)COOH; SEQ ID NO: 442) and Cy5.5 conjugated to (RADA)2 (Cy5.5(RADA)2COOH; SEQ ID NO: 444).
The rats were sacrificed 24 hours or 3 days post treatment. The eye balls of the rats were harvested and were then fixed in 4% paraformaldehyde (PFA) overnight. Excessive PFA was washed with 0.1M phosphate buffer (0.1MPB) 3 times (30 minutes each). The eyeballs were then dehydrated with 30% sucrose solution (30 g sucrose in 100 mL of 0.1 MPB) overnight, while replenishing the sucrose solution once for at least 6 hours. As necessary, the shape of the eyeballs was reformed with O.C.T. (Optimal Cutting Temperature compound; TISSUE-TEK® O.C.T.; CA) by injecting through the optic nerve. Each eye was embedded entirely in a mount with O.C.T. in liquid nitrogen to form frozen blocks. Blocks containing the eye samples were then sectioned at 20 microns and were placed on charged slides and allowed to dry. The slides were then rinsed to remove excess OCT and cover-slipped. The fate of the Cy5.5-RADA conjugate was investigated by tracing the color of the Cy5.5 in the eye. Visualization was performed with light microscopy and photographs were taken with a SPOT camera affixed to the Zeiss microscope.

[3] = tested on: activated retinal microglial cells; experiment: Lipopolysaccharide ocular inflammation model, intravitreal co-injection, quantification of activated retinal microglial cells (Example 1); type: in vivo, Sprague-Dawley rats; parameters: TOTAL AREA WEIGHT (total retinal area weight-averaged density; amount of inflammation) / JEB #: unit not given here; details: for JEB # / TOTAL AREA WEIGHT (total retinal area weight-averaged density; amount of inflammation): 0.5% RADA + LPS intravitreal
Procedure: The anti-inflammatory effect of SAP was examined using the lipopolysaccharide ocular inflammation model, and measurement of microglial cell activation was assessed as an indicator of inflammation. Morphological changes in macrophage cells, such as microglial cells, can be used as a marker of the presence and extent of inflammation. Methods for identifying and scoring variations in microglial cell morphology in response to inflammatory stimuli are described in the art (see, for example, Jonas, et al., PLoS ONE 7(2): e30763 (2012)).
Adult white Sprague-Dawley rats weighing between 200 and 240 grams were housed in a 12 hour light/12 hour night cycle with free access to food and water. The animals were randomly divided into study or control groups.
Animals were anesthetized by an intraperitoneal injection of xylazine 2% (5 mg/kg body weight) and ketamine 10% (100 mg/kg body weight). Topical anesthesia was additionally provided by repeated administration of proparacaine (0.5%) drops onto the cornea. A thorough disinfection of the ocular surface, the lid margins and the periocular skin was carried out with iodine 5% solution.
Using a glass pipette pulled to the size of a 30 gauge needle and attached to a syringe, 2 μl of sterile, pyrogen-free saline containing lipopolysaccharides from Salmonella typhimurium (catalog no. L-7261; Sigma-Aldrich, St. Louis, Mo.) was intravitreally injected.
For the primary experiment, the study included 40 Sprague-Dawley rats. All intravitreal injection volumes were of 2 μl, to reduce the effects of increased ocular pressure. All intravitreal injections of lipopolysaccharides (LPS) volumes were 4 μg at a concentration of 2 μg/μL.
The control groups (n=20) received either an intravitreal saline injection (n=5), lipopolysaccharide (LPS) alone ([…]), or no injection as a normal control group (n=5). Animals in the SAP study group (n=15) also received the self-assembling peptide (amino acid sequence RADARADARADARADA; “RADA-16”) in concentrations of 0.5% of SAP/2 μL.
At one, three and seven days after the injections, the animals were sacrificed, and the globes were immunohistochemically stained and histomorphometrically examined. The contralateral eye from the LPS group was also examined.
The eyes were embedded with Optimal Cutting Temperature compound (Tissue-Tek® O.C.T., Ted Pella, Inc. Redding, Calif.) after the lenses were removed. The globes were sectioned and placed on subbed slides. After being washed in 0.01M phosphate buffered saline for 10 minutes, the sections (15 μm) were immersed in a blocking solution containing 0.3% triton, 2.5% bovine serum albumin (BSA; Proliant Co, Ankeny, Iowa, USA) and 2% goat serum for 30 minutes. The sections were incubated in a primary antibody diluted solution overnight at 4° C., containing rabbit anti-IBA1 (Ionized calcium Binding Adaptor molecule 1; 1:500; Wako Pure Chemical Industries, Ltd. Osaka, Japan) and mouse anti rat CD 68 (ED1) (1:1000; AbD Serotech, D-40470 Dusseldorf, Germany). The sections were then washed in 0.01M phosphate buffered saline (10 minutes, 3 times), and incubated with secondary antibody diluted solution at room temperature for 2 hours (Goat-anti-rabbit 568, Goat-anti-mouse Alexa 488, (Invitrogen, Carlsbad, Calif., 1:400)). The slides were then washed in 0.01M phosphate buffered saline (10 minutes, 3 times) and cover slipped with fluorescein mounting medium with DAPI (4′,6-diamidin-2′-phenylindol-dihydrochloride; Dako Ltd, Glostrup, Denmark). All images were taken under a 20× objective with a Carl Zeiss Flour microscope (Carl Zeiss Inc. Oberkochen, Germany) fitted with a spot camera. All illumination levels were fixed during image acquisition.
The amount of intraocular inflammation was assessed by quantification of immunohistochemically labeled activated retinal microglial cells, which function as the immune mediators of the central nervous system. […]

[4] = 1.0% and 3.0% solutions with LPS, 24 hours

H2N(EARA)COOH (H-EARA-OH) [SAP S2]
signs of retinal inflammation compared to control ([1]; along with LPS, FIG. 5): marked reduction

Cy5.5(RADA)COOH ({Cy5.5}-RADA-OH) [Cy5.5 conjugated to RADA]
localization [2]: localize to the retina

H2N(RARA)CONH2 (H-RARA-NH2) [SAP S3]
LPS induced inflammation ([1]; along with LPS, FIG. 5): reduced LPS induced inflammation to normal levels | signs of retinal inflammation compared to control ([1]; along with LPS, FIG. 5): marked reduction

MSCRAMM(EARA)4 (MSCRAMMEARAEARAEARAEARA) [conjugate of an EARA based SAP and a tissue-specific motif (MSCRAMM]
ED1 reactivity [1, 4]: no evidence of ED1 reactivity | activation of microglia (JEB score) [1, 4]: ≤ 4 | inflammation in treated animals [1, 4]: no inflammation | signs of retinal inflammation compared to control (LPS only) [1, 4]: reduction

RADARADA [(RADA)2]
signs of retinal inflammation compared to control (LPS alone) ([1]; all concentrations (0.1%, 1.0%, 10.0%), 24 hours, FIG. 4): marked reduction | density of activated retinal microglial cells compared to controls (LPS alone) ([1]; combination injection with LPS, 24 hours): significantly lower

RADARADARADARADA
JEB # ([3]; Day 1): 11.63 | TOTAL AREA WEIGHT (total retinal area weight-averaged density; amount of inflammation) ([3]; Day 1): 74.99 | TOTAL AREA WEIGHT (total retinal area weight-averaged density; amount of inflammation) ([3]; Day 1, listed as SAP): 75.0±26.6 | JEB # ([3]; Day 3): 8.502 | TOTAL AREA WEIGHT (total retinal area weight-averaged density; amount of inflammation) ([3]; Day 3): 55.91 | TOTAL AREA WEIGHT (total retinal area weight-averaged density; amount of inflammation) ([3]; Day 3, listed as SAP): 55.9±45.9 | JEB # ([3]; Day 7): 9.158 | TOTAL AREA WEIGHT (total retinal area weight-averaged density; amount of inflammation) ([3]; Day 7): 52.66 | TOTAL AREA WEIGHT (total retinal area weight-averaged density; amount of inflammation) ([3]; Day 7, listed as SAP): 52.7±47.7 | amount of inflammation compared to normal or saline injected controls ([3]; 0.5% SAP + LPS): no significant difference | level of inflammation compared to LPS-only control group ([3]; 0.5% SAP + LPS): significantly (P<0.001) lower | density of activated retinal microglial cells compared to LPS controls ([3]; SAP + LPS vs LPS-only): significantly lower | signs of retinal inflammation ([3]; intraocular SAP along with LPS): marked reduction

Cy5.5(RADA)2COOH ({Cy5.5}-RADARADA-OH) [Cy5.5 conjugated to RADARADA]
localization [2]: localize to the retina

Cy5.5(RADA)4CONH2
localization [2]: localize to the retina | pink coloration (Cy5.5) in the retina [2]: pink coloration was observed throughout the outer retina | transport across the cornea / localization [2]: localize within the retina

Cy5.5 [reference compound]
pink coloration (Cy5.5) in the retina [2]: no pink coloration was observed in any part of the retina or optic nerve head | transport across the cornea / localization [2]: not transported across the cornea

H2N(EARA)2CONH2 (H-EARAEARA-NH2) [SAP S5]
signs of retinal inflammation compared to control ([1]; along with LPS, FIG. 5): marked reduction
